Holding throughout (assay): DTP human tumour cell line panel, 48 h
The subject of assay [1] is TK-10.
In assay [2] the test system is UACC-257.
Assay [3] concerns SNB-19.
Assay [4] deals with SW-620.
Assay [5] deals with CCRF-CEM.
In assay [6] the test system is SK-MEL-2.
The test system of assay [7] is COLO 205.
For assay [8], the system named is Malme-3M.
Assay [9] relates to DLD-1.
For assay [10], the system named is KM-20L2.
Assay [11] concerns NCI-H226.
In assay [12] the test system is U-251.
Assay [13] concerns RXF 393.
The test system of assay [14] is NCI-H23.
For assay [15], the system named is 786-0.
For assay [16], the system named is UACC-62.
For assay [17], the system named is SK-MEL-5.

SMILES strings stand for the structures.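 A five-concentration, 48-hour dose response in 96-well plates underlies each endpoint, interpolated linearly between surrounding concentrations. At the GI50, growth is halved.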 The source made the active and inactive calls. No stated cut-off is given here; in the data, active = GI50 up to about 1.1 µM and inactive = higher. A value given as a limit tells only on which side of the number the result lay.

A word on the GI50: it is the concentration giving 50% growth inhibition. Consider `O=c1oc2c3ccc4ccccc4c3n(Cc3nc4ccccc4[nH]3)c2c2ccccc12`, for which the GI50 in assay [1] was > 100 µM (inactive); in [2], 5.01 µM (inactive); in [3] it was 4.5 µM (inactive); in assay [4], 2.2 µM (inactive); in [5] it was 1.07 µM (active); in assay [6] it was 41.3 µM (inactive). The GI50 is 12.7 µM (inactive) in [7]; > 100 µM (inactive) in assay [8]; 5.73 µM (inactive) in assay [9]; > 69.5 µM (inactive) in [10]; 7.03 µM (inactive) in [11]; 4.25 µM (inactive) in assay [12]. The GI50 is 9.4 µM (inactive) in assay [13], 4.95 µM (inactive) in assay [14], 7.16 µM (inactive) in assay [15] and 3.28 µM (inactive) in [16].

With `O=C1CCC2CCOc3ccc(O)c1c32` (stereo not given), the GI50 in assay [1], in [2], in assay [3], in assay [5], in assay [6] and in assay [7] was > 100 µM (inactive) throughout. Further, the GI50 in [17], in assay [8], in assay [9], in assay [10], in assay [11] and in [12] was > 100 µM (inactive) throughout. Moreover, the GI50 in assay [13], in [14], in assay [15] and in assay [16] was > 100 µM (inactive) each time.

In the case of `O=C(O)CC1CC=C[C@H]2c3cc4c(cc3C(=O)NC12)OCO4` (stereo not given in full), the GI50 in assay [1], in [2], in [3], in [4], in assay [5] and in assay [7] was > 75 µM (inactive) in each case. The GI50 in [8] was > 75 µM (inactive); in assay [9], > 75 µM (inactive); in assay [10], > 75 µM (inactive); in [11], 44.7 µM (inactive); in assay [12], > 75 µM (inactive); in assay [13], > 75 µM (inactive). The GI50 in assay [14], in assay [15] and in assay [16] was > 75 µM (inactive) each time.

With `O=C1[C@H]2ON(c3ccccc3)C(c3ccco3)[C@H]2C(=O)N1c1ccc(Cc2ccc(N3C(=O)[C@@H]4ON(c5ccccc5)C(c5ccco5)[C@@H]4C3=O)cc2)cc1` (stereo not given in full), the GI50 is 47.5 µM (inactive) in assay [2]; > 100 µM (inactive) in [4]; > 100 µM (inactive) in assay [5]; > 100 µM (inactive) in assay [6]; 78.2 µM (inactive) in [7]; > 100 µM (inactive) in [17]. The GI50 in assay [8], in [9], in assay [10], in assay [11], in [12] and in [13] was > 100 µM (inactive) in each case. Moreover, the results for the GI50 in assay [14], in assay [15] and in [16] were > 100 µM (inactive), > 100 µM (inactive) and 85.3 µM (inactive), respectively.

On to `C(/COc1cccnc1)=N\NC1=NCCN1`, for which the GI50 in assay [1], in assay [2], in [3], in assay [4], in [5] and in assay [6] was > 100 µM (inactive) in each case. Moreover, the GI50 in assay [7], in assay [17], in [8], in assay [9], in assay [10] and in assay [11] was > 100 µM (inactive) throughout. The GI50 in [12], in assay [13], in assay [14], in assay [15] and in assay [16] was > 100 µM (inactive) throughout.

Take `CC(=O)OCCc1cccnc1/C=N/O`: the GI50 in assay [1], in assay [2], in [3], in assay [4], in [5] and in assay [6] was > 100 µM (inactive) in each case. Also, the GI50 in [7] is > 100 µM (inactive); in [17] it was > 100 µM (inactive); in assay [8], > 100 µM (inactive); in assay [9], > 100 µM (inactive); in [10] it was > 100 µM (inactive); in [11], 77.6 µM (inactive). In addition, the GI50 in [12], in assay [13], in assay [14], in assay [15] and in assay [16] was > 100 µM (inactive) throughout.

On to `CCOc1ccc(/C=N\N2C(=O)c3ccccc3C2=O)cc1`, for which the GI50 in assay [1], in assay [2], in assay [3], in assay [4], in [5] and in assay [6] was > 100 µM (inactive) throughout. The GI50 in assay [17], in assay [8], in assay [9], in [10], in assay [11] and in assay [13] was > 100 µM (inactive) each time. The GI50 in assay [14], in assay [15] and in [16] was > 100 µM (inactive) in each case.

For the compound `COc1cc(-c2cc(-c3cc([N+](=O)[O-])c(/C=N/NC(=O)c4ccncc4)o3)ccc2OC)ccc1C`, the GI50 in assay [1] is > 100 µM (inactive); in assay [2] it was > 100 µM (inactive); in assay [3] it was > 100 µM (inactive); in assay [4] it was > 100 µM (inactive); in [5], > 10 µM (inactive); in [6], > 100 µM (inactive). Further, the GI50 in [7], in assay [8], in assay [9], in [10], in [11] and in assay [13] was > 100 µM (inactive) each time. Further, the GI50 in [14], in assay [15] and in [16] was > 100 µM (inactive) in each case.

Regarding `C=CSCCC(N)C(=O)O` (stereo not given), the GI50 in [1], in [2], in assay [3], in [4], in assay [5] and in assay [7] was > 100 µM (inactive) each time. The GI50 in assay [17], in [8], in assay [9], in assay [10], in [11] and in assay [12] was > 100 µM (inactive) each time. Moreover, the GI50 in assay [13], in assay [14], in [15] and in [16] was > 100 µM (inactive) in each case.

`CC1=CC(=O)C(=O)C2=C1OC1(C2)C(C)CCC2C3(C)CCC(O)C(C)(C)C3CCC21C` (stereo not given): the GI50 in [1] was 18.8 µM (inactive); in assay [2], 18.9 µM (inactive); in [3] it was 16.8 µM (inactive); in assay [4], 22.1 µM (inactive); in assay [5], 14 µM (inactive); in assay [7] it was 16.3 µM (inactive). Further, the GI50 was 18 µM (inactive) in [17]; 19.8 µM (inactive) in assay [8]; 20.1 µM (inactive) in assay [9]; 18.7 µM (inactive) in assay [10]; 18.2 µM (inactive) in assay [11]; 14.6 µM (inactive) in [12]. Further, the GI50 in assay [13] was 15.3 µM (inactive); in [14], 15.8 µM (inactive); in [15], 17.4 µM (inactive); in [16], 15.8 µM (inactive).

Turning to `C/C(=C\CC[C@]1(C)OC(C)(C)OC1CC/C(C)=C/CO[Si](c1ccccc1)(c1ccccc1)C(C)(C)C)CC/C=C/CO[Si](C)(C)C(C)(C)C` (stereo not given in full), the GI50 in [1], in assay [2], in assay [3], in assay [4], in [5] and in assay [6] was > 100 µM (inactive) in each case. In addition, the GI50 in [17], in assay [8], in assay [9], in assay [10], in assay [11] and in assay [12] was > 100 µM (inactive) in each case. Further, the GI50 in assay [13], in [14], in assay [15] and in assay [16] was > 100 µM (inactive) each time.

Regarding `CCN1/C(=C/C(C)=C/c2sc3ccccc3[n+]2CC)Sc2ccccc21`, the 50% growth inhibitory concentration (GI50) was 0.324 µM (active) in [1]; 0.0214 µM (active) in assay [3]; 0.122 µM (active) in assay [4]; 0.0261 µM (active) in [5]; 0.201 µM (active) in assay [6]; 0.142 µM (active) in [7]. The GI50 in assay [17] is 0.0925 µM (active); in [8], 0.37 µM (active); in assay [9], 0.207 µM (active); in [10] it was 0.191 µM (active); in assay [11], 0.0625 µM (active); in assay [12], 0.0378 µM (active). For the same compound, the GI50 was 0.273 µM (active) in assay [13], 0.0415 µM (active) in [14], 0.418 µM (active) in assay [15] and 0.0927 µM (active) in [16].

(Values after ChEMBL document CHEMBL1201862, “PubChem BioAssay data set” (2004).)
